In patent US11926611B1, “2-(2-ethoxyethoxy)-6-phenyl-4,4′-bipyridine-3-carbonitrile as an antimicrobial compound” (KING FAISAL UNIVERSITY, priority 2023, dated 2024):

What was measured:
Escherichia coli = assay: Antimicrobial screening by agar dilution, Escherichia coli; type: cell-based; details: after 10, 20, 40 and 60 minutes at all dilutions 1:100, 1:200, 1:400, 1:800
Experimental: (§1) The antibacterial properties of the synthesized compound 2-(2-ethoxyethoxy)-6-phenyl-4,4′-bipyridine-3-carbonitrile were studied by the method of agar dilution. Test solutions of each compound was prepared in concentration of 1% using dimethylformamide as a solvent then they are diluted in physiological solution to obtain the final experimental dilutions 1:100, 1:200, 1:400, 1:800. The effect of these substances are compared with furacillin in a controllable study. The testing microbes used were gram positive bacteria Staphylococcus aureus, gram negative bacteria Pseudomonas aeruginosa and Escherichia coli and Candida albicans fungus. The experiments used for this survey were meat-pentonlu agar (EPA) for cultivation of bacteria and Saburo environment for the fungus. Each experiment used 1 mL of test solution on each plate […]. Two drops of emulsified with microbes feel were added. All experimental samples were taken from the agar after 10, 20, 40, 60 minutes in the environment on the basis of Patrk planted. The bacteria were cultivated at a temperature of 37° C. for 1 day and the mushroom was kept in a thermostat for […] at a temperature of 28° C. Then results were checked.

Pseudomonas aeruginosa = assay: Antimicrobial screening by agar dilution, Pseudomonas aeruginosa; type: cell-based; details: after 10, 20, 40 and 60 minutes at all dilutions 1:100, 1:200, 1:400, 1:800
Experimental: as §1

Staphylococcus aureus = assay: Antimicrobial screening by agar dilution, Staphylococcus aureus; type: cell-based; details: after 10, 20, 40 and 60 minutes at all dilutions 1:100, 1:200, 1:400, 1:800
Experimental: as §1

Candida albicans = assay: Antimicrobial screening by agar dilution, Candida albicans; type: cell-based; details: after 10, 20, 40 and 60 minutes at all dilutions 1:100, 1:200, 1:400, 1:800
Experimental: as §1

melting point: 241 to 243 °C
SMILES: CCOCCOc1nc(-c2ccccc2)cc(-c2ccncc2)c1C#N [2-(2-ethoxyethoxy)-6-phenyl-4,4′-bipyridine-3-carbonitrile]
inhibition activity (in words) (Escherichia coli): highest inhibition activity
inhibition activity (in words) (Pseudomonas aeruginosa): highest inhibition activity
inhibition activity (in words) (Staphylococcus aureus): highest inhibition activity
inhibition activity (in words) (Candida albicans): highest inhibition activity
